The source of these data is US10519177B2, “Heterocyclic compounds and uses thereof” (Plexxikon Inc., priority 2013, dated 2019).

In one test the test system is bromodomain. Nature of the test: at least one of the bromodomain cell assays of Example 57. The test is classed as cell-based. The conditions noted are these: at least one of the bromodomain cell assays described in Example 57; read-out: IC50 in at least one of the bromodomain cell assays.
The subject of another test is MV-4-11 cells. Nature of the test: Oncology cell growth assay MV-4-11 (CellTiter Glo). The format is cell-based. To be noted: read-out: Cell activity (IC50 μM) MV-4-11 3d-Growth. An excerpt:
Published bromodomain inhibitors JQ1 and iBET 151 have shown activity in variety of cancer cells such leukemia and lymphoma, multiple myeloma cells, NUT midline carcinoma and glioblastoma cells (Dawson M A et al. 2011; Delmore J E 2011; Chen Z et al. 2013; Filippakopoulos P et al. 2010; Mertz J A et al. 2011; Ott C J et al. 2012). In this study, we test compounds in different cancer cell lines. MV-4-11 and MOLM-13 are AML cell lines harboring a MLL-AF4 and MLL-AF9 translocation, respectively. MM.1S is a multiple myeloma cell line. SK-N-AS, IMR-32 and SK-N-BE(2) are neuroblastoma cell lines. IMR-32 and SK-N-BE(2) cell lines harbor MYCN amplifications.
MV-4-11, MM.1S, IMR-32, SK-N-AS and SK-N-BE(2) were obtained from ATCC (IL, USA) and MOLM-13 were purchased from DSMZ (Braunschweig, German). Cells are cultured as recommended by their sources. For growth inhibition studies 3000 cells are seeded in wells of a 96-well plate in 75 μL of culture media. After several hours, growth media containing compounds of formula (I) are added to the wells. Compound at a maximal concentration of 5 mM was serially diluted 1:3 for a total of 8 point titration with DMSO as a control. A 1 μL aliquot of each dilution point is added to 249 μL growth media and 75 μL is added to each well containing cells, providing 10 μM compound at the maximum concentration point. The final concentration of DMSO in all wells is 0.2%. Cells are incubated for 72 hours, and 25 μL of CellTiter Glo Reagent (Promega GA, USA) is added to each well. Plates are shaken for approximately 10 minutes and chemiluminescent signal is read on Tecan microplate reader. The measured luminescence correlates directly with cell number.
All data is normalized to the mean of eight DMSO high control wells on each plate. A four parameter curve fit of the following formula was then applied: Y=a+(b−a)/(1+(x/c)^d) Where ‘a’ is the minimum, ‘b’ is the maximum, ‘c’ is the pIC50 and ‘d’ is the Hill slope. […] Myc Reporter Assay
(ATP-based viability assays read luminescence as a measure of living cells.)

Read-outs that look alike come from different tables or passages of the source.

As a reminder, the IC50 is the concentration that inhibits the measured activity by half. For `Cc1noc(C)c1-c1cnc2c(-c3cnn(C)c3)cn(C(=O)C3CCC(F)(F)CC3)c2c1` [P-0208], the IC50 with bromodomain was less than 10 µM; in the test on MV-4-11 cells (MV-4-11 3d-Growth), 1 to 10 µM. Turning to `[2H]C([2H])(C1CCC(F)(F)CC1)n1cc(-c2cnn(CC(F)(F)F)c2)c2ncc(-c3c(C)noc3C)cc21` [P-0221, 4-[1-[dideuterio-(4,4-difluorocyclohexyl)methyl]-3-[1-(2,2,2-trifluoroethyl)pyrazol-4-yl]pyrrolo[3,2-b]pyridin-6-yl]-3,5-dimethyl-isoxazole], the IC50 in the test on bromodomain is less than 10 µM; with MV-4-11 cells (Homo sapiens, MV4-11, 72 h), less than 1 µM. Turning to `COc1ccc(-c2cnc3c(-c4cnn(C(F)F)c4)cn(CC4CCC(F)(F)CC4)c3c2)cn1` [P-0358, 1-[(4,4-difluorocyclohexyl)methyl]-3-[1-(difluoromethyl)pyrazol-4-yl]-6-(6-methoxy-3-pyridyl)pyrrolo[3,2-b]pyridine], the IC50 in the test with bromodomain was less than 10 µM; in the test on MV-4-11 cells (Homo sapiens, MV4-11, 72 h), 10 to 200 µM. Take `Cc1ccc(-c2cn(CC3(C)CCCCC3)c3cc(-c4c(C)noc4C)cnc23)cc1` [P-0792, 3,5-dimethyl-4-[1-[(1-methylcyclohexyl)methyl]-3-(p-tolyl)pyrrolo[3,2-b]pyridin-6-yl]isoxazole]: the IC50 in the test on bromodomain was less than 10 µM.

As for `Cc1ccc(-c2cn(CC3CCOCC3)c3cc(-c4c(C)noc4C)cnc23)cc1` [P-0793, 3,5-dimethyl-4-[3-(p-tolyl)-1-(tetrahydropyran-4-ylmethyl)pyrrolo[3,2-b]pyridin-6-yl]isoxazole], the IC50 in the test on bromodomain was less than 10 µM. Same read-out and setting: for `Cc1ccc(-c2cn(CC3CC4CC4C3)c3cc(-c4c(C)noc4C)cnc23)cc1` (stereo not shown) [P-0795, 4-[1-(3-bicyclo[3.1.0]hexanylmethyl)-3-(p-tolyl)pyrrolo[3,2-b]pyridin-6-yl]-3,5-dimethyl-isoxazole] the value was less than 10 µM; for `Cc1noc(C)c1-c1cnc2c(-c3ccc4c(c3)COC4=O)cn(CC3CCC(F)(F)CC3)c2c1` [P-0796, 5-[1-[(4,4-difluorocyclohexyl)methyl]-6-(3,5-dimethylisoxazol-4-yl)pyrrolo[3,2-b]pyridin-3-yl]-3H-isobenzofuran-1-one], less than 10 µM; for `Cc1noc(C)c1-c1cnc2c(-c3ccc4c(c3)COC4=O)cn(CC3CCCCC3)c2c1` [P-0797, 5-[1-(cyclohexylmethyl)-6-(3,5-dimethylisoxazol-4-yl)pyrrolo[3,2-b]pyridin-3-yl]-3H-isobenzofuran-1-one], less than 10 µM.

As for `Cc1noc(C)c1-c1cnc2c(-c3ccc4c(c3)CCOC4=O)cn(CC3CCC(F)(F)CC3)c2c1` [P-0798, 6-[1-[(4,4-difluorocyclohexyl)methyl]-6-(3,5-dimethylisoxazol-4-yl)pyrrolo[3,2-b]pyridin-3-yl]isochroman-1-one], the concentration for half-maximal inhibition (IC50) in the test on bromodomain is less than 10 µM. The same measure, in the same setting: for `Cc1noc(C)c1-c1cnc2c(-c3ccc4c(c3)CCOC4=O)cn(CC3CCCCC3)c2c1` [P-0799, 6-[1-(cyclohexylmethyl)-6-(3,5-dimethylisoxazol-4-yl)pyrrolo[3,2-b]pyridin-3-yl]isochroman-1-one] the value was less than 10 µM. Same read-out and setting: for `Cc1noc(C)c1-c1cnc2c(-c3ccc4c(c3)OC(=O)C4)cn(CC3CCC(F)(F)CC3)c2c1` [P-0800, 6-[1-[(4,4-difluorocyclohexyl)methyl]-6-(3,5-dimethylisoxazol-4-yl)pyrrolo[3,2-b]pyridin-3-yl]-3H-benzofuran-2-one] the value was less than 10 µM; for `Cc1noc(C)c1-c1cnc2c(-c3ccc4c(c3)OC(=O)C4)cn(CC3CCCCC3)c2c1` [P-0801, 6-[1-(cyclohexylmethyl)-6-(3,5-dimethylisoxazol-4-yl)pyrrolo[3,2-b]pyridin-3-yl]-3H-benzofuran-2-one], less than 10 µM. The same measure, in the same setting: for `Cc1noc(C)c1-c1cnc2c(-c3ccc(C(C)(C)C)cc3)cn(Cc3ccccn3)c2c1` [P-0804, 4-[3-(4-tert-butylphenyl)-1-(2-pyridylmethyl)pyrrolo[3,2-b]pyridin-6-yl]-3,5-dimethyl-isoxazole] the value was less than 10 µM; for `Cc1ccc(-c2cn(CC3(F)CCC(F)(F)CC3)c3cc(-c4c(C)nnn4C)cnc23)cc1` [P-0808, 6-(3,5-dimethyltriazol-4-yl)-3-(p-tolyl)-1-[(1,4,4-trifluorocyclohexyl)methyl]pyrrolo[3,2-b]pyridine], less than 10 µM; for `Cc1nnn(C)c1-c1cnc2c(-c3ccc(C(C)(C)C)cc3)cn(CC3(F)CCC(F)(F)CC3)c2c1` [P-0809, 3-(4-tert-butylphenyl)-6-(3,5-dimethyltriazol-4-yl)-1-[(1,4,4-trifluorocyclohexyl)methyl]pyrrolo[3,2-b]pyridine], less than 10 µM.

`Cc1nnn(C)c1-c1cnc2c(-c3ccc(C(C)(C)C)cc3)cn(CC3CCC(F)(F)CC3)c2c1` [P-0810, 3-(4-tert-butylphenyl)-1-[(4,4-difluorocyclohexyl)methyl]-6-(3,5-dimethyltriazol-4-yl)pyrrolo[3,2-b]pyridine]: the IC50 with bromodomain is less than 10 µM. As for `Cc1nnn(C)c1-c1cnc2c(-c3ccc(CC(=O)O)cc3)cn(CC3CCC(F)(F)CC3)c2c1` [P-0811, 2-[4-[1-[(4,4-difluorocyclohexyl)methyl]-6-(3,5-dimethyltriazol-4-yl)pyrrolo[3,2-b]pyridin-3-yl]phenyl]acetic acid], the IC50 in the test on bromodomain is less than 10 µM. Take `Cc1nnn(C)c1-c1cnc2c(-c3ccc(CC(=O)O)cc3)cn(CC3(F)CCC(F)(F)CC3)c2c1` [P-0812, 2-[4-[6-(3,5-dimethyltriazol-4-yl)-1-[(1,4,4-trifluorocyclohexyl)methyl]pyrrolo[3,2-b]pyridin-3-yl]phenyl]acetic acid]: the IC50 in the test on bromodomain is less than 10 µM. Consider `Cc1noc(C)c1-c1cnc2c(-c3ccc(C(C)(C)C)cc3)cn([C@@H](c3ccccc3)c3ccccn3)c2c1` [P-0813, 4-[3-(4-tert-butylphenyl)-1-[(S)-phenyl(2-pyridyl)methyl]pyrrolo[3,2-b]pyridin-6-yl]-3,5-dimethyl-isoxazole], for which the concentration for half-maximal inhibition (IC50) with bromodomain was less than 10 µM. Regarding `Cc1noc(C)c1-c1cnc2c(-c3ccc(C(C)(C)C)cc3)cn([C@H](c3ccccc3)c3ccccn3)c2c1` [P-0814, 4-[3-(4-tert-butylphenyl)-1-[(R)-phenyl(2-pyridyl)methyl]pyrrolo[3,2-b]pyridin-6-yl]-3,5-dimethyl-isoxazole], the IC50 with bromodomain is less than 10 µM.

For `Cc1noc(C)c1-c1cnc2c(-c3ccc(C(=O)O)cc3)cn([C@H](c3ccccn3)C3CCCCC3)c2c1` [P-0815, 4-[1-[(S)-cyclohexyl(2-pyridyl)methyl]-6-(3,5-dimethylisoxazol-4-yl)pyrrolo[3,2-b]pyridin-3-yl]benzoic acid], the IC50 in the test with bromodomain was less than 10 µM. Same read-out and setting: for `Cc1noc(C)c1-c1cnc2c(-c3ccc(C(=O)O)cc3)cn([C@@H](c3ccccn3)C3CCCCC3)c2c1` [P-0816, 4-[1-[(R)-cyclohexyl(2-pyridyl)methyl]-6-(3,5-dimethy7lisoxazol-4-yl)pyrrolo[3,2-b]pyridin-3-yl]benzoic acid] the value was less than 10 µM. As for `Cc1ccc(-c2cn([C@@H](c3ccccn3)C3CCCCC3)c3cc(-c4c(C)noc4C)cnc23)cc1` [P-0817, 4-[1-[(R)-cyclohexyl(2-pyridyl)methyl]-3-(p-tolyl)pyrrolo[3,2-b]pyridin-6-yl]-3,5-dimethyl-isoxazole], the IC50 in the test with bromodomain was less than 10 µM. On the same count and under the same terms, under `Cc1ccc(-c2cn([C@H](c3ccccn3)C3CCCCC3)c3cc(-c4c(C)noc4C)cnc23)cc1` [P-0818, 4-[1-[(S)-cyclohexyl(2-pyridyl)methyl]-3-(p-tolyl)pyrrolo[3,2-b]pyridin-6-yl]-3,5-dimethyl-isoxazole] stands less than 10 µM.

Regarding `Cc1noc(C)c1-c1cnc2c(-c3ccc(C(=O)O)cc3)cn([C@H](c3ccccn3)C3CCCC3)c2c1` [P-0819, 4-[1-[(S)-cyclopentyl(2-pyridyl)methyl]-6-(3,5-dimethylisoxazol-4-yl)pyrrolo[3,2-b]pyridin-3-yl]benzoic acid], the IC50 in the test with bromodomain is less than 10 µM. Same read-out and setting: for `Cc1noc(C)c1-c1cnc2c(-c3ccc(C(=O)O)cc3)cn([C@@H](c3ccccn3)C3CCCC3)c2c1` [P-0820, 4-[1-[(R)-cyclopentyl(2-pyridyl)methyl]-6-(3,5-dimethylisoxazol-4-yl)pyrrolo[3,2-b]pyridin-3-yl]benzoic acid] the value was less than 10 µM.

`Cc1ccc(-c2cn([C@@H](c3ccccn3)C3CCCC3)c3cc(-c4c(C)noc4C)cnc23)cc1` [P-0821, 4-[1-[(R)-cyclopentyl(2-pyridyl)methyl]-3-(p-tolyl)pyrrolo[3,2-b]pyridin-6-yl]-3,5-dimethyl-isoxazole]: the half-maximal inhibitory concentration (IC50) in the test on bromodomain is less than 10 µM. `Cc1ccc(-c2cn([C@H](c3ccccn3)C3CCCC3)c3cc(-c4c(C)noc4C)cnc23)cc1` [P-0822, 4-[1-[(S)-cyclopentyl(2-pyridyl)methyl]-3-(p-tolyl)pyrrolo[3,2-b]pyridin-6-yl]-3,5-dimethyl-isoxazole]: the IC50 in the test on bromodomain is less than 10 µM.
